Experimental data published in article PMC8533176, “1,5-Benzodiazepin-2(3H)-ones: In Vitro Evaluation as Antiparkinsonian Agents” (Antioxidants, 2021).

Columns and labels:
[1] = Kinetic solubility by UV spectrometry; type: physicochemical; settings: PBS 50 mM, aqueous buffer, kinetic from dmso stock
Outline: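 Compound from 20 mM DMSO stock was added to 10 mM PBS, shaken 2 h and filtered. The filtrate's UV absorbance (270–600 nm) was quantified against a 10–200 µM calibration curve in 50 mM PBS with 2% DMSO. Run in triplicate.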

[2] = system: SH-SY5Y cells; test: Intracellular ROS levels (DCFH2-DA); type: cell-based, human; settings: 400 µM H2O2 4 h; compounds 24 h before
Experimental: Intracellular ROS levels were determined using dichlorofluorescein diacetate (DCFH2-DA) according to Wang et al.. DCFH2-DA is cleaved by intracellular esterases and is oxidized by ROS to form the fluorescent compound DCF, which represents the ROS level. Therefore, 3 × 10^3 SH-SY5Y cells were seeded in 96-well culture black clear bottom plates and after 24 h were treated with the test compound for an additional 24 h. Then, they were exposed to H2O2 for 4 h. After the incubation period, cells were washed twice with Hanks buffer and loaded with 20 µM DCFH2-DA (in FBS-free culture medium) for 40 min in dark at 37 °C in a CO2 incubator. At the end of the dye incubation period, they were washed twice with Hanks buffer to remove the extracellular DCFH2-DA. Fluorescence was measured with a Varioskan microplate reader at λex = 485 nm and λem = 535 nm wavelengths. Results are expressed as a percentage of the fluorescent increase compared with that of the control. All the experiments were performed at least three times in quadruplicate for each compound concentration.

[3] = system: SH-SY5Y cells; test: Resazurin cell viability assay under H2O2; type: cell-based, human; settings: H2O2 250 µM 24 h; Figure 10B
[4] = system: HepG2 cells; test: Cytotoxicity, MTT assay, HepG2; type: cell-based; settings: Homo sapiens, HepG2; MTT, cytotoxicity; read-out: HepG2 IC50
Outline: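 Cells treated with 5–200 µM compound (DMSO vehicle, four replicates) after overnight attachment. Viability read by MTT reduction (2 h, 37 °C, dark; formazan in DMSO, A570) relative to vehicle controls; IC50 from dose–response regression.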

[5] = system: SH-SY5Y cells; test: Intracellular GSH recovery (monochlorobimane); type: cell-based, human; settings: H2O2 250 µM 24 h; 5, 10 and 20 µM
Experimental: For intracellular GSH determination studies, the method of Senft et al. was used. In summary, 3 × 10^3 SH-SY5Y cells were seeded in 96-well culture black clear bottom plates and after 24 h were treated with the test compound for an additional 24 h. Then, they were exposed to H2O2 for 24 h. After the incubation period, cells were loaded with 30 µM mClB and incubated at 37 °C for 30 min in a CO2 incubator as described by Sebastia et al.. At the end of the mClB incubation period, fluorescence was measured with a Varioskan microplate reader at λex = 405 nm and λem = 475. Results are expressed as the percentage of the fluorescence increase compared with that of the control. Experiments were performed four times in triplicate.

[6] = system: SH-SY5Y cells; test: Lipid peroxidation (MDA, TBARS); type: cell-based, human; settings: 250 µM H2O2 24 h; 10 and 20 µM 24 h before
Experimental: For MDA studies, 2 × 10^5 SH-SY5Y cells were seeded in 6-well culture plates. After 24 h, cells were treated with the test compound and incubated for another 24 h. After compound treatment, cells were exposed to H2O2 for 24 h. Then, the cells were washed twice with cold 50 mM PBS buffer, detached, and lysed with lysis buffer, and TBA was added to each sample tube and vortexed. The reaction mixture was incubated at 96 °C for 60 min. After incubation, samples were cooled and centrifuged 10 min at 10^4 rpm. Samples were dispensed in 96-well culture black clear bottom plates, and fluorescence was measured with a Varioskan microplate reader at λex = 540 nm and λem = 590 nm wavelengths. Protein concentration was measured by the Bradford protein assay. The levels of MDA were expressed as nmol/mg protein. Experiments were performed four times in triplicate.

O=C1CC(c2ccccc2)=Nc2ccccc2N1 [Compound 18, 4-Phenyl-1H-1,5-benzodiazepin-2(3H)-one]
solubility [1]: < 100 µM
Intracellular ROS level reduction [2]: ROS level reduction at all doses
Neuroprotection, cell viability (resazurin) [3]: significant protection against the oxidative stress insult
IC50 [4]: 224 ± 35 µM
intracellular GSH recovery [5]: 18–20%
Effect on MDA levels [6]: significantly prevented
